Assay [1] addresses T1, PRMT5-MEP50 enzyme (Homo sapiens, UniProt O14744).
T1 construct: One virus expresses full length human PRMT5 with Flag-tag at N-terminus; Flag (N); purchased Charles River (Argenta); host or cells: insect cells (Sf9), baculovirus co-infection
As to the kind of experiment: In vitro assay 1a: high throughput mass spectrometer assay of SAH formation, 10 nM enzyme, 60 min. It is filed as biochemical. As to conditions: averaged values, PRMT5-MEP50, 10 nM enzyme, read-out: pIC50 Assay 1a (converted). The procedure, abridged:
(§1)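 Flag-PRMT5/His-MEP50 complex from Sf9 cells, with 1 μM SAM and 0.3 μM full-length histone H2A in pH 8.5 Tris buffer, at 30 °C; 10 nM enzyme for 60 min (1a) or 1.25 nM for 120 min (1b). Formic acid-quenched SAH read by RapidFire MS/MS; 11-point IC50 with Hill fit.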

The target in assay [2] is T1, PRMT5-MEP50 enzyme. Briefly: In vitro assay 1b: high throughput mass spectrometer assay of SAH formation, 1.25 nM enzyme, 120 min. The following applies: averaged values; PRMT5-MEP50, 1.25 nM enzyme, 120 min; read-out: pIC50 Assay 1b (converted). It is filed as biochemical. The essentials:
as §1

The subject of assay [3] is nuclear symmetric Arginine dimethylation in A549 cells. Briefly: PD assay (assay 2): inhibition of nuclear symmetric Arginine dimethylation (SYM10 immunohistochemistry), 48 h. It is filed as cell-based. As to conditions: Homo sapiens, A549, averaged values; PD assay, A549 cells, symmetric Arginine dimethylation; read-out: pIC50 Assay 2 (converted). The essentials: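 Cells seeded at 400/well overnight, then treated 48 h at 37 °C, final DMSO 0.2%. Fixed and stained with SYM10 antibody plus Alexa 488 secondary, Hoechst and CellMask, then imaged on Opera. Normalized to DMSO (high) and 10 μM reference compound (low); averaged pIC50 reported.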

SMILES strings stand for the structures.

T1 sequence (O14744 whole entry): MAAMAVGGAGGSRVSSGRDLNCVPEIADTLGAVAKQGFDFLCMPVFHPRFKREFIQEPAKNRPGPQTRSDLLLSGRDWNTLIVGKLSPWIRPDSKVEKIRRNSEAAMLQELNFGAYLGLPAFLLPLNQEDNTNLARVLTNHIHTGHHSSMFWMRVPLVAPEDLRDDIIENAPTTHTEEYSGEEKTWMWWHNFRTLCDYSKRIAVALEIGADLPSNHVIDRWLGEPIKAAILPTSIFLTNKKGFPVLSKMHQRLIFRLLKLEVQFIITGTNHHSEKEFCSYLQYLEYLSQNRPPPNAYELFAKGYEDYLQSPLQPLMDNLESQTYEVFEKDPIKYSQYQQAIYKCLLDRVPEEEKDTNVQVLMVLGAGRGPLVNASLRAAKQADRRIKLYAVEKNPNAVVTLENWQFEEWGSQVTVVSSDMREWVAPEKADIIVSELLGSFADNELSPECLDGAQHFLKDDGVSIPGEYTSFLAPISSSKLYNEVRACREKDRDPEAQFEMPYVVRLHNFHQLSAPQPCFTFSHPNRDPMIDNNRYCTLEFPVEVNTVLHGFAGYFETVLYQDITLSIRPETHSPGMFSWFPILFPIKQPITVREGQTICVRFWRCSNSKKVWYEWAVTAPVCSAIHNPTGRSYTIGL
T1 sequence (Q9BQA1 whole entry partner): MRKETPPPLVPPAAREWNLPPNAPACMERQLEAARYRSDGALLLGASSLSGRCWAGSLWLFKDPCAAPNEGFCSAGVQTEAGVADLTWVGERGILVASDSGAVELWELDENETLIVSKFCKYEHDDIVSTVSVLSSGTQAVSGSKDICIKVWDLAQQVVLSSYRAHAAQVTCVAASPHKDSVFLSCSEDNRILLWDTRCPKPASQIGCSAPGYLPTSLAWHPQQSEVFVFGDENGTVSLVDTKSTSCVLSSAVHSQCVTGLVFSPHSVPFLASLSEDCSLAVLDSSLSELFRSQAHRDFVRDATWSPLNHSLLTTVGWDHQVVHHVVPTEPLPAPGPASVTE

For the compound `CC(C)C(=O)O[C@@H]1[C@H](OC(=O)C(C)C)[C@@H](COc2ccc3cc(Br)cnc3c2)O[C@H]1n1ccc2c(N)ncnc21` [Compound 73], the IC50 in assay [1] was more than 10000 nM; in assay [2], more than 100000 nM; in assay [3], 100 nM.
On the same counts, the results for `Nc1ncnc2c1ccn2[C@@H]1C[C@H](CCc2ccc3ccc(NCC(F)F)nc3c2)[C@@H](O)[C@H]1O` [Compound 75] are 0.251 nM, 0.501 nM and 1.58 nM.
For `Cc1cn([C@@H]2O[C@H](COc3ccc4cccnc4c3)[C@@H](O)[C@H]2O)c2ncnc(N)c12` [Compound 82], in that order: 200 nM, 501 nM and 1260 nM.
On the same counts, the results for `Cc1cc2c(N)ncnc2n1[C@@H]1O[C@H](COc2ccc3cccnc3c2)[C@@H](O)[C@H]1O` [Compound 83] are 39.8 nM, 126 nM and 200 nM.
As for `Nc1ncnc2c1ccn2[C@@H]1O[C@H](COc2ccc3cc(C4CC4)cnc3c2)[C@@H](O)[C@H]1O` [Compound 84], the IC50 in assay [1] is 15.8 nM; in assay [2] it was 79.4 nM; in assay [3] it was 200 nM.
Turning to `Nc1ncnc2c1ccn2[C@@H]1C[C@H](OCc2ccc3cnccc3c2)[C@@H](O)[C@H]1O` [Compound 85], the IC50 is more than 10000 nM in assay [1], 7940 nM in assay [2] and 12600 nM in assay [3].
In the case of `CN(C[C@H]1O[C@@H](n2ccc3c(Cl)ncnc32)[C@H](O)[C@@H]1O)c1ccc2cc(Br)cnc2c1` [Compound 86], the IC50 in assay [1] was 2510 nM; in assay [2], 1000 nM; in assay [3], 5010 nM.
For `COc1ncnc2c1ccn2[C@@H]1O[C@H](CNc2ccc3cc(Br)cnc3c2)[C@@H](O)[C@H]1O` [Compound 87], in that order: 501 nM, 1000 nM and 1580 nM.
`COc1ncnc2c1ccn2[C@@H]1O[C@H](CN(C)c2ccc3cc(Br)cnc3c2)[C@@H](O)[C@H]1O` [Compound 88]: the values for the IC50 in assay [1], in assay [2] and in assay [3] were more than 10000 nM, 7940 nM and more than 10000 nM, respectively.
On to `CC(C)C(=O)O[C@@H]1[C@H](OC(=O)C(C)C)[C@@H](COc2ccc3cccnc3c2)O[C@H]1n1ccc2c(N)ncnc21` [Compound 89], for which the IC50 in assay [1] was more than 10000 nM; in assay [2], 31600 nM; in assay [3], 63.1 nM.
On the same counts, the results for `Nc1ncnc2c1ccn2[C@@H]1C[C@H](Cc2ccc3ccccc3c2)[C@@H](O)[C@H]1O` [Compound 90] are 100 nM, 631 nM and more than 10000 nM.
`Nc1ncnc2c1ccn2[C@@H]1O[C@H](COc2cc3ncccc3cc2Cl)[C@@H](O)[C@H]1O` [Compound 91]: the figures for the IC50 in assay [1], in assay [2] and in assay [3] were 126 nM, 501 nM and 398 nM, respectively.
As to `Nc1ncnc2c1ccn2[C@@H]1C[C@H](Cc2ccc3ccncc3c2)[C@@H](O)[C@H]1O` [Compound 95], the IC50 in assay [1] was 316 nM; in assay [2], 501 nM; in assay [3] it was more than 10000 nM.
For `Nc1ncnc2c1ccn2[C@@H]1O[C@H](COc2cc3ncc(Br)cc3cc2C(F)(F)F)[C@@H](O)[C@H]1O` [Compound 96], in that order: 200 nM, 501 nM and 200 nM.
On to `CN(C)Cc1ccc2ccc(OC[C@H]3O[C@@H](n4ccc5c(N)ncnc54)[C@H](O)[C@@H]3O)cc2n1` [Compound 97], for which the IC50 is more than 10000 nM in assay [1], 15800 nM in assay [2] and more than 10000 nM in assay [3].
For `N#Cc1cnc2cc(OC[C@H]3O[C@@H](n4ccc5c(N)ncnc54)[C@H](O)[C@@H]3O)ccc2c1` [Compound 98], the figures for the IC50 in assay [1], in assay [2] and in assay [3] were 631 nM, 1580 nM and 10000 nM, respectively.
On the same counts, the results for `Nc1ncnc2c1ccn2[C@@H]1O[C@H](COc2ccc3c(C(F)(F)F)ccnc3c2)[C@@H](O)[C@H]1O` [Compound 99] are more than 10000 nM, more than 100000 nM and more than 10000 nM.
On the same counts, the results for `Nc1ncnc2c1ccn2[C@@H]1O[C@H](COc2cc3ncc(Cl)cc3cc2Cl)[C@@H](O)[C@H]1O` [Compound 100] are 126 nM, 200 nM and 794 nM.
On the same counts, the results for `Nc1ncnc2c1ccn2[C@@H]1O[C@H](COc2ccc3cc(Cl)cnc3c2Cl)[C@@H](O)[C@H]1O` [Compound 101] are 1000 nM, 794 nM and 2000 nM.
Take `Nc1ncnc2c1ccn2[C@@H]1O[C@H](COc2cc(Cl)c3cccnc3c2)[C@@H](O)[C@H]1O` [Compound 102]: the IC50 is 100 nM in assay [1], 501 nM in assay [2] and more than 10000 nM in assay [3].
On the same counts, the results for `Nc1ncnc2c1ccn2[C@@H]1O[C@H](CCc2ccc3ccncc3c2)[C@@H](O)[C@H]1O` [Compound 103] are 398 nM, 1260 nM and 7940 nM.
For `COc1ccnc2cc(OC[C@H]3O[C@@H](n4ccc5c(N)ncnc54)[C@H](O)[C@@H]3O)ccc12` [Compound 104], in that order: 5010 nM, 15800 nM and more than 10000 nM.
Consider `COC(=O)c1cnc2cc(OC[C@H]3O[C@@H](n4ccc5c(N)ncnc54)[C@H](O)[C@@H]3O)ccc2c1` [Compound 105], for which the IC50 in assay [1] was 158 nM; in assay [2], 1000 nM; in assay [3], 2510 nM.
On to `Nc1ncnc2c1ccn2[C@@H]1O[C@H](COc2cc3ncc(Br)cc3cc2F)[C@@H](O)[C@H]1O` [Compound 106], for which the IC50 is 63.1 nM in assay [1], 158 nM in assay [2] and 398 nM in assay [3].
On the same counts, the results for `Nc1ncnc2c1ccn2[C@@H]1O[C@H](COc2ccc3ccc(NCc4ccccc4)nc3c2)[C@@H](O)[C@H]1O` [Compound 107] are 1.26 nM, 3.98 nM and 3.98 nM.
On the same counts, the results for `Cc1cc2c(N)ncnc2n1[C@@H]1O[C@H](COc2ccc3cc(Br)cnc3c2)[C@@H](O)[C@H]1O` [Compound 108] are 39.8 nM, 100 nM and 63.1 nM.
On the same counts, the results for `Nc1ncnc2c1ccn2[C@@H]1O[C@H](COc2ccc3cc(C4CCCC4)cnc3c2)[C@@H](O)[C@H]1O` [Compound 109] are 126 nM, 200 nM and 1000 nM.
As for `Nc1ccc2ccc(CC[C@H]3C[C@@H](n4ccc5c(Cl)ncnc54)[C@H](O)[C@@H]3O)cc2n1` [Compound 110], the results for the IC50 in assay [1], in assay [2] and in assay [3] were 2 nM, 1.58 nM and 0.501 nM, respectively.
For `Nc1ncnc2c1ccn2[C@@H]1O[C@H](CCc2ccc3cc(Br)cnc3c2)[C@@H](O)[C@H]1O` [Compound 111], in that order: 12.6 nM, 39.8 nM and 63.1 nM.
On the same counts, the results for `CC(C)Cc1cnc2cc(OC[C@H]3O[C@@H](n4ccc5c(N)ncnc54)[C@H](O)[C@@H]3O)ccc2c1` [Compound 112] are 50.1 nM, 200 nM and 398 nM.
For `Cc1cnc2cc(CC[C@H]3C[C@@H](n4ccc5c(N)ncnc54)[C@H](O)[C@@H]3O)ccc2c1` [Compound 113], in that order: 5.01 nM, 10 nM and 5.01 nM.
Regarding `O[C@@H]1[C@@H](CCc2ccc3ccc(NCc4ccc(Cl)cc4)nc3c2)C[C@@H](n2ccc3c(Cl)ncnc32)[C@@H]1O` [Compound 114], the IC50 is 15.8 nM in assay [1], 25.1 nM in assay [2] and 12.6 nM in assay [3].
On the same counts, the results for `O[C@@H]1[C@@H](CCc2ccc3ccc(NCC4CC4)nc3c2)C[C@@H](n2ccc3c(Cl)ncnc32)[C@@H]1O` [Compound 115] are 10 nM, 5.01 nM and approximately 5.5 nM.
On the same counts, the results for `COCc1cnc2cc(OC[C@H]3O[C@@H](n4ccc5c(N)ncnc54)[C@H](O)[C@@H]3O)ccc2c1` [Compound 120] are 79.4 nM, 316 nM and 316 nM.
For `CCc1cnc2cc(CC[C@H]3O[C@@H](n4ccc5c(N)ncnc54)[C@H](O)[C@@H]3O)ccc2c1` [Compound 122], in that order: 12.6 nM, 50.1 nM and 79.4 nM.
`Cc1cnc2cc(CC[C@H]3O[C@@H](n4ccc5c(N)ncnc54)[C@H](O)[C@@H]3O)ccc2c1` [Compound 123]: the values for the IC50 in assay [1], in assay [2] and in assay [3] were 5.01 nM, 39.8 nM and 31.6 nM, respectively.
With `Nc1ncnc2c1ccn2[C@@H]1C[C@H](CCc2ccc3ccc(NCc4ccc(Cl)cc4)nc3c2)[C@@H](O)[C@H]1O` [Compound 124], the IC50 in assay [1] was 2 nM; in assay [2] it was 5.01 nM; in assay [3], 0.631 nM.
For `CCc1cnc2cc(CC[C@H]3C[C@@H](n4ccc5c(N)ncnc54)[C@H](O)[C@@H]3O)ccc2c1` [Compound 125], the results for the IC50 in assay [1], in assay [2] and in assay [3] were 3.98 nM, 25.1 nM and 20 nM, respectively.
